# Experimental data from patent US8258158B2 (Hoffmann-La Roche Inc., priority 2009, dated 2012).
# Molecular target: T1, human HSL (Homo sapiens, UniProt Q05469)
# T1 construct: overlapping PCR to generate a full length human HSL ORF with a 3′-His6 tag; His6 (C); made in house; host or cells: High 5 insect cells (baculovirus, pFast-BAC)
# T1 sequence (Q05469 1-1076): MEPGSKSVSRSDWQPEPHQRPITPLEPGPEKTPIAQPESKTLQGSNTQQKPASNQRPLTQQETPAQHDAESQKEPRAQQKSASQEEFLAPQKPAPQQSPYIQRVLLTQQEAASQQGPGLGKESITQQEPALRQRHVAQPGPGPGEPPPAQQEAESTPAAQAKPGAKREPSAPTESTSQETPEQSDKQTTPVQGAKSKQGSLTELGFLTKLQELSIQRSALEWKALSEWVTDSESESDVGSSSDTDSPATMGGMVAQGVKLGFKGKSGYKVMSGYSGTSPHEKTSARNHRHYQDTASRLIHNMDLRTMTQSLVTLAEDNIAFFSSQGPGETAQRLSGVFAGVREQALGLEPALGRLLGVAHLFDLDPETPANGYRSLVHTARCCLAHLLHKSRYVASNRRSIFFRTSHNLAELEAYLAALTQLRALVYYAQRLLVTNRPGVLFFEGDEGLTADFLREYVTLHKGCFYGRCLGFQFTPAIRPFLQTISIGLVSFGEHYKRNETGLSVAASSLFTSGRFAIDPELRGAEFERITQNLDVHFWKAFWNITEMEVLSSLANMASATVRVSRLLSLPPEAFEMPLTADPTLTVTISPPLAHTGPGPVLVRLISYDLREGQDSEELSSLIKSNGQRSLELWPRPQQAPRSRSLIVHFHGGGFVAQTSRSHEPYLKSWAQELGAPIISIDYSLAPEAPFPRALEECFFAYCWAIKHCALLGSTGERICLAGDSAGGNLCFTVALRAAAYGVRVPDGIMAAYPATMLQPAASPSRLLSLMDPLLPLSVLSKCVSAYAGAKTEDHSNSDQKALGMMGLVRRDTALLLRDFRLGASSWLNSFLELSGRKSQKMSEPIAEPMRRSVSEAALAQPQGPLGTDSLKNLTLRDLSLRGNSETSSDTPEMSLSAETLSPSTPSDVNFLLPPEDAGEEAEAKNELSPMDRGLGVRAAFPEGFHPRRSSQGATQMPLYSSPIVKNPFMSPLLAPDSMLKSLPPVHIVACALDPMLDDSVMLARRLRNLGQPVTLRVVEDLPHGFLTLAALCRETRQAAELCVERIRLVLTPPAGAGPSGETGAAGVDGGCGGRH
# Test: Human hormone-sensitive lipase (HSL) enzyme inhibition assay (colorimetric, DMPT substrate)
# Type: biochemical
# Conditions: human full length HSL-His6; 2,3-dimercapto-1-propanol tributyrate substrate; 37° C., 20 minutes; read-out: HSL hum IC50
# Experimental: Production of Human Full Length Hormone Sensitive Lipase-His^6:
# 1) Cloning: cDNA was prepared from commercial human brain polyA+ RNA and used as a template in overlapping PCR to generate a full length human HSL ORF with a 3′-His6 tag. This full length insert was cloned into the pFast-BAC vector and the DNA-sequence of several single clones was verified. DNA from a correct full length clone with the 3′His6 tag was used to transform the E. coli strain DH10BAC. Resulting bacmid DNA was used to generate a titered baculovirus stock for protein generation. The sequence of the encoded HSL conforms to Swissprot entry Q05469, with the additional C-terminal His6-tag.
# 2) Protein purification: Culture: 5.5 L, High 5 cells expressing human full length HSL-His^6, 48 hr., containing 25 μM E-64. Cell count: […], 90% viable. Cells were thawed. On ice, cells were suspended in Base Buffer containing 10% glycerol, 25 mM Tris-Cl, 300 mM NaCl, 10 mM imidazole, 10 mM 2-mercaptoethanol, 2 μg pepstatin/ml, 2 μg leupeptin/ml, 2 μg antipain/ml, pH 8.0 at 4° C. in a final volume of 475 ml with 3.75×10^7 cells/ml. […] was done at 3×30 sec., Lubrol PX was added to 0.2% final concentration followed by stirring for 15 min. at 4° C. and centrifugation at 25 k×g, 60 min., 4° C. Soluble proteins were mixed with 60 ml of pre-washed and equilibrated Ni-NTA Agarose (Qiagen 30210) followed by tumbling end-over-end, 45 min., 4° C., centrifugation 1000 rpm 5 min and letting resin settle 5 min. Supernatant was removed, the resin washed in the centrifuge vessel using 5 volumes of Base Buffer containing 0.2% Lubrol PX. Centrifugation was done again, then the supernatant discarded. The resin was poured onto a 0.8 μm membrane in a disposable filter unit (Nalge 450-0080), and washed with 5 volumes of Base Buffer containing 0.2% Lubrol PX. It was then washed with 30 volumes of Base Buffer containing 60 mM imidazole pH 7.5 at 4° C. The protein was eluated with 5 volumes of 25 mM Tris-Cl, 300 mM NaCl, 200 mM imidazole, 10 mM 2-mercaptoethanol, pH 7.5 at 4° C. by tumbling resin with buffer end-over-end, 30 min., 4° C. The resin was captured on a 0.2 μm membrane disposable filter unit (Millipore SCGP U02 RE) and the eluate collected in the reservoir. The eluate was concentrated using a 30 k MWCO centrifugal filter device (Sartorius Vivascience Vivacell 100, VC1022), to 20 ml. It was then dialyzed overnight at 4° C., two times against 2 L of 10% glycerol, 25 mM Tris-Cl, 300 mM NaCl, 0.2 mM EDTA, 0.2 mM DTT, pH 7.5 at 4° C. The protein was filtered using a 0.22 μm disposable filter unit (Millipore SCGP00525). The protein concentration was calculated from absorbance at 280 nm, using 280=0.67 cm-1 mg-1. Yield was 235 mg, total. The protein was stored at −80° C.
# Human Hormone-Sensitive Lipase (HSL) Enzyme Inhibition Assay:
# HSL enzyme activity was measured by a colorimetric assay using 2,3-dimercapto-1-propanol tributyrate (Aldrich, St. Louis, Mo.) as a substrate. Typically, 1.5 mM 2,3-dimercapto-1-propanol tributyrate (DMPT) in 100 mM MOPS, pH 7.2, 0.2 mg/ml fatty acid-free BSA was prepared by sonication at 4° C. to homogenous suspension. Test compounds (2 mM stock in DMSO) were diluted 3 fold in series in DMSO. Compound solutions were diluted 24 fold in 1.5 mM DMPT containing solution and 18 ul per well was added to 384-well microplates (Corning Costar). Twelve microliters per well of human HSL (15 ug/ml) was added and the reaction mixture was incubated at 37° C. for 20 minutes. Six microliters of 12 mM dithio-bis-(2-nitrobenzoic acid) (DTNB) in DMSO plus 1.2% SDS and 0.6% Triton X-100 were added and the mixture was incubated at room temperature for 15 minutes. Product production was monitored by reading absorbance at 405 nm on an Envision Reader (PerkinElmer Life and Analytical Sciences, Shelton, Conn.).
row,SMILES,IC50 [nM]
1,"Cc1ccc(S(=O)(=O)N2CCC(C(=O)Nc3ccc(OC(C)(C)C(F)(F)F)cc3)CC2)cc1 [Example 33, 1-(Toluene-4-sulfonyl)-piperidine-4-carboxylic acid [4-(2,2,2-trifluoro-1,1-dimethyl-ethoxy)-phenyl]-amide]",130
2,"CC(C)(C)CC(=O)N1CCC(C(=O)Nc2ccc(OC(F)(F)F)cc2)CC1 [Example 21, 1-(3,3-Dimethyl-butyryl)-piperidine-4-carboxylic acid (4-trifluoromethoxy-phenyl)-amide]",200
3,"CC(C)c1ccc(NC(=O)C2CCN(S(=O)(=O)c3ccccc3)CC2)cn1 [Example 2, 1-Benzenesulfonyl-piperidine-4-carboxylic acid (6-isopropyl-pyridin-3-yl)-amide]",240
4,"Cc1ccc(S(=O)(=O)N2CCC(C(=O)Nc3ccc(CCO)cc3)CC2)cc1 [Example 22, 1-(Toluene-4-sulfonyl)-piperidine-4-carboxylic acid [4-(2-hydroxy-ethyl)-phenyl]-amide]",700
5,"Cc1ccc(S(=O)(=O)N2CCC(C(=O)Nc3ccc(OC(F)F)cc3)CC2)cc1 [Example 13, 1-(Toluene-4-sulfonyl)-piperidine-4-carboxylic acid (4-difluoromethoxy-phenyl)-amide]",120
6,"Cc1ccc(S(=O)(=O)N2CCC(C(=O)Nc3ccc(OCC4CC4)cc3)CC2)cc1 [Example 20, 1-(Toluene-4-sulfonyl)-piperidine-4-carboxylic acid (4-cyclopropylmethoxy-phenyl)-amide]",170
7,"CC(C)(C)CCC(=O)N1CCC(C(=O)Nc2ccc(OC(F)(F)F)cc2)CC1 [Example 56, 1-(4,4-Dimethyl-pentanoyl)-piperidine-4-carboxylic acid (4-trifluoromethoxy-phenyl)-amide]",260
8,"COc1ccc(S(=O)(=O)N2CCC(C(=O)Nc3ccc(OC(F)(F)F)cc3)CC2)cc1 [Example 48, 1-(4-Methoxy-benzenesulfonyl)-piperidine-4-carboxylic acid (4-trifluoromethoxy-phenyl)-amide]",40
9,"CN(C(=O)[C@H]1CCN(S(=O)(=O)c2ccccc2Cl)[C@H](CO)C1)c1ccc(OC(F)(F)F)cc1 (racemic) [Example 11, (2S,4S)-1-(2-Chloro-benzenesulfonyl)-2-hydroxymethyl-piperidine-4-carboxylic acid methyl-(4-trifluoromethoxy-phenyl)-amide and (2R,4R)-1-(2-Chloro-benzenesulfonyl)-2-hydroxymethyl-piperidine-4-carboxylic acid methyl-(4-trifluoromethoxy-phenyl)-amide]",80
10,"CCn1nc(NC(=O)C2CCN(S(=O)(=O)c3ccccc3)CC2)cc1C(F)(F)F [Example 35, 1-Benzenesulfonyl-piperidine-4-carboxylic acid (1-ethyl-5-trifluoromethyl-1H-pyrazol-3-yl)-amide]",1130
11,CC(C)c1ccc(NC(=O)C2CCN(C(=O)CC(C)(C)C)CC2)cc1 [Example 10],200
12,"O=C(NCC1(c2ccc(Cl)cc2)CC1)C1CCN(S(=O)(=O)c2ccccc2)CC1 [Example 62, 1-Benzenesulfonyl-piperidine-4-carboxylic acid [1-(4-chloro-phenyl)-cyclopropylmethyl]-amide]",530
13,"CC(Oc1ccc(NC(=O)C2(CO)CCN(S(=O)(=O)c3ccccc3Cl)CC2)cc1)C(F)(F)F (racemic) [Example 24, 1-(2-Chloro-benzenesulfonyl)-4-hydroxymethyl-piperidine-4-carboxylic acid [4-(2,2,2-trifluoro-1-methyl-ethoxy)-phenyl]-amide]",1140
14,"CC1(C(=O)Nc2ccc(OC(F)(F)F)cc2)CCN(S(=O)(=O)c2ccccc2)CC1 [Example 57, 1-Benzenesulfonyl-4-methyl-piperidine-4-carboxylic acid (4-trifluoromethoxy-phenyl)-amide]",250
15,"COCC[C@@H](Oc1ccc(NC(=O)C2CCN(S(=O)(=O)c3ccc(C)cc3)CC2)cc1)C(F)(F)F [Example 59, 1-(Toluene-4-sulfonyl)-piperidine-4-carboxylic acid [4-((R)-3-methoxy-1-trifluoromethyl-propoxy)-phenyl]-amide]",290
16,"O=C(Nc1ccc(OC(F)(F)F)cc1)C1CCN(S(=O)(=O)N2CCOCC2)CC1 [Example 37, 1-(Morpholine-4-sulfonyl)-piperidine-4-carboxylic acid (4-trifluoromethoxy-phenyl)-amide]",600
17,"Cc1ccc(S(=O)(=O)N2CCC(C(=O)Nc3ccc(OC(F)(F)F)cc3)CC2)cc1 [Example 1, 1-(Toluene-4-sulfonyl)-piperidine-4-carboxylic acid (4-trifluoromethoxy-phenyl)-amide]",80
18,"O=C(Nc1ccc(OC(F)(F)F)cc1)[C@H]1CCN(S(=O)(=O)c2ccccc2Cl)[C@H](CO)C1 (racemic) [Example 36, (2S,4S)-1-(2-Chloro-benzenesulfonyl)-2-hydroxymethyl-piperidine-4-carboxylic acid (4-trifluoromethoxy-phenyl)-amide and (2R,4R)-1-(2-Chloro-benzenesulfonyl)-2-hydroxymethyl-piperidine-4-carboxylic acid (4-trifluoromethoxy-phenyl)-amide]",50
19,"Cc1ccc(S(=O)(=O)N2CCC(C(=O)Nc3ccc(OC(C)C(F)(F)F)cc3)CC2)cc1 (racemic) [Example 25, (rac)-1-(toluene-4-sulfonyl)-piperidine-4-carboxylic acid [4-(2,2,2-trifluoro-1-methyl-ethoxy)-phenyl]-amide]",90
